Test results reported in patent US5242826A, “Polypeptides for adhering cells to a substrate” (Regents of the University of Minnesota, priority 1991, dated 1993).

Experiment: 3H-heparin binding to type IV collagen and to NCl domain
Protocol: It was then established that ^3 H-heparin binds both to intact, native type IV collagen and to the isolated NCl domain. FIGS. 10 and 11 show the binding of a constant amount of ^3 H-heparin (85,000 dpm) to increasing concentrations of type IV collagen and the NCl domain, respectively. […] Type IV collagen binds 5-6 times more ^3 H-heparin than does the NCl domain.
Next, the binding of increasing concentrations of ^3 H-heparin to a constant amount of type IV collagen (3 μg) and an equimolar amount of the NCl domain (1 μg) was tested. […] In this type of experiment, approximately 4 times more ^3 H-heparin bound to type IV collagen than to the NCl domain.

binding of a constant amount of 3H-heparin to increasing concentrations of protein (3H-heparin 85,000 dpm, FIG. 10-11): saturable binding
3H-heparin bound by type IV collagen relative to NCl domain (constant 3H-heparin (85,000 dpm), increasing protein): 5-6 times
3H-heparin bound to type IV collagen relative to NCl domain (increasing 3H-heparin, constant protein (3 μg vs 1 μg)): approximately 4 times
binding of increasing concentrations of 3H-heparin to a constant amount of protein (type IV collagen 3 μg, NCl domain 1 μg (equimolar), FIG. 12-13): saturable binding
Substance: type IV collagen: basement membrane glycoprotein, MW about 500,000, two α1 chains and one α2 chain
